We go through one compound from US20240277713A1 (Kadmon Corporation, LLC, priority 2022, published 2024).

Structures are written as SMILES.

In data set [1] the test system is rats. The data set is described as follows: General toxicology studies in rats. The class given is in vivo, rat.
In data set [2] the target is human serum albumin (Homo sapiens, UniProt P02768). The data set is described as follows: Binding to human serum albumin in vitro. It is filed as in vitro ADME.
Data set [3] deals with T1, CYP1A2 (Homo sapiens, UniProt P05177).
T1 sequence (P05177 1-516): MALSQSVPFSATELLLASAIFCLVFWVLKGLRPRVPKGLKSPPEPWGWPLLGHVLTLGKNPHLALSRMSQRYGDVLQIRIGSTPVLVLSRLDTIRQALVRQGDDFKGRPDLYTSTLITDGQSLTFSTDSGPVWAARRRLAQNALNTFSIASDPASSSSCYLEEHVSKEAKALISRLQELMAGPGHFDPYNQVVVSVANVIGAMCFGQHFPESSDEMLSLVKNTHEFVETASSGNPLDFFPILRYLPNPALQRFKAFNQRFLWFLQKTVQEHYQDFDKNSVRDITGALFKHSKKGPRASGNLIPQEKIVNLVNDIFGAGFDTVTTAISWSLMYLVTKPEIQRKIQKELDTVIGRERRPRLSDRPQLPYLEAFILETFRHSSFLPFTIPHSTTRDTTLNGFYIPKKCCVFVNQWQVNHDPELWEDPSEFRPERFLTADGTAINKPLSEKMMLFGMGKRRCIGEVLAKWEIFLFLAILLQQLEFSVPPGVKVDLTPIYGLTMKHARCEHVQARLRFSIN
The data set is described as follows: Enzyme systems in vitro: CYP1A2. It is filed as in vitro ADME.

human serum albumin, sequence (P02768 25-609): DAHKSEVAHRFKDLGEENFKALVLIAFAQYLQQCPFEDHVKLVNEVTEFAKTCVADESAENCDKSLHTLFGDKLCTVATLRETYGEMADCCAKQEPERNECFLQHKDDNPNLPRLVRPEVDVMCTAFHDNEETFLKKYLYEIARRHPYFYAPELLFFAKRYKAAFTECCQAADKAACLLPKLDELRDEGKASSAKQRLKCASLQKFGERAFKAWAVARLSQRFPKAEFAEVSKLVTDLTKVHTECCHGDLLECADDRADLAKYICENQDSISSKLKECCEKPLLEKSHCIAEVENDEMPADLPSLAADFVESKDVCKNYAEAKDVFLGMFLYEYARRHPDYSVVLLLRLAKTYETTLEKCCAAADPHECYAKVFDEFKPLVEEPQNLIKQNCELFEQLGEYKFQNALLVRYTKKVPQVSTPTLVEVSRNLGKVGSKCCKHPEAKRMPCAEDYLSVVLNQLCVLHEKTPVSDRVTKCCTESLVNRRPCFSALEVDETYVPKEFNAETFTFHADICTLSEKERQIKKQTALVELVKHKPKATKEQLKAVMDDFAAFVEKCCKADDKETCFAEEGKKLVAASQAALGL

With `CC(C)NC(=O)COc1cccc(-c2nc(Nc3ccc4[nH]ncc4c3)c3ccccc3n2)c1` [belumosudil, 2-{3-[4-(1H-indazol-5-ylamino)-2-quinazolinyl]phenoxy}-N-(propan-2-yl) acetamide], the “dose with decreased follicular development in ovaries” value in data set [1] is reported as 275 mg/kg/day. Further, in data set [2], the “binding to human serum albumin” value is given as 99.9%. The CYP1A2 inhibition result in data set [3] was “inhibitor”.
